Reference: patent US11116778B2, “Prodrugs of ALOX-15 inhibitors and methods of using the same” (EMPIRICO INC., priority 2019, dated 2021)
Read-outs that look alike come from different tables or passages of the source.

How the values were obtained:
[1] = test system: Human nasal epithelial primary cells (HNEpC); assay: Levels of compound 5 and compound 3 in media of human nasal epithelial primary cells, LC-MS/MS; format: in vitro ADME; details: HNEpC treated with 5 μM or 1 μM compound 5
Experimental: (§1) Human nasal epithelial primary cells (HNEpC) (PromoCell GmbH, Heidelberg, Germany) were cultured according to the manufacturer in provided Primary Cell media in 24 well plates at a density of 25,000 cells per well. Cells were treated with 5 μM or 1 μM of compound 5 or vehicle only (water) in media containing 20 ng/mL IL-13 for 24 hours in a 37° C. cell culture incubator. The following day, media was replaced and fresh media containing 20 ng/mL IL-13 and compound 5 or vehicle was added to each well, then incubated again for 24 hours in a 37° C. cell culture incubator. The process was repeated once more for a 24-hour period.
To determine levels of arachidonic acid and linoleic acid metabolites after compound treatment, cell media was replaced with fresh Primary Cell media without IL-13. ALOX15 substrate (arachidonic acid or linoleic acid) was added to each well at a concentration of 1.5 μM and cells further incubated 37° C. for 1 hour. Media was collected from each well and quenched with an equal volume of LC/MS extraction buffer (methanol, 60 mM ascorbic acid, 0.1% acetic acid).
From the quenched media samples, compound 5 and compound 3 were also quantified. Compound 3 was quantified using LC-MS/MS (QTrap5500, Applied Biosystems). […] Compound 5 was quantified using LC-MS/MS (QTrap5500, Applied Biosystems). […]

[2] = Solubility assessment in water; format: physicochemical; details: for solubility: thermodynamic from solid
Experimental: Water was added slowly to 4.7 mg of compound 5 until 4.7 ml of water was added at which point the phosphate fully dissolved. The pH of the solution was estimated using litmus paper and estimated to be <3. Without a counterion, the molecular weight of the phosphate is 418 m. Therefore, at 1 mg/ml, the concentration is 2.4 mM.
For comparison, compound 3 is soluble to 0.4 μg/ml (Han et al FASEB J. 2017 31(2):491-504), which at a molecular weight of 308 is 1.3 μM.
Compound 5 was suspended in water (at weight to give a final concentration of 10 mM) and then 2 eq NaHCO3 was added.

[3] = biological target: T1, human lipoxygenase (ALOX15 Active Human Recombinant Protein) (Homo sapiens, UniProt P16050); assay: Recombinant human ALOX15 assay (DPPP fluorescence)
T1 sequence (P16050 1-662): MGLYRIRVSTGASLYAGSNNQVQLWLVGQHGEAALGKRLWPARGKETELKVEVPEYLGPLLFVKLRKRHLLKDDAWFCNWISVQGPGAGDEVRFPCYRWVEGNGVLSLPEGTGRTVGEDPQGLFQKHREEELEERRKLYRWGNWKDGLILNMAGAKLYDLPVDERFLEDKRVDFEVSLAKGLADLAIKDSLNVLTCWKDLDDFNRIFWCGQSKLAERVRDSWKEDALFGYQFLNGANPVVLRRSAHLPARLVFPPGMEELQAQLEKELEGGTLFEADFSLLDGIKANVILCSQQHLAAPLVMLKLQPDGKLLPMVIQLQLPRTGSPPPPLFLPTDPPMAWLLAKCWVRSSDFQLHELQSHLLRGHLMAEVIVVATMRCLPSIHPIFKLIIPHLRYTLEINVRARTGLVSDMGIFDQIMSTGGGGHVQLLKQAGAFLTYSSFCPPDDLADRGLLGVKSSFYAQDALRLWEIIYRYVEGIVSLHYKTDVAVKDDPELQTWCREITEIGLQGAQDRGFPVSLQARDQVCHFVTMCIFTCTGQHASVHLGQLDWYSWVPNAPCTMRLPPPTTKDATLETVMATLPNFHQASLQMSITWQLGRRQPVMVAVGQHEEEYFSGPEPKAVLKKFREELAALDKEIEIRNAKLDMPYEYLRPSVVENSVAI
Experimental: Within a minute of phosphatase addition, a white precipitate appeared.
This mixture was incubated for 5 min before the addition of 1.5 μL 0.2 mM arachidonic acid.

POSTN mRNA = POSTN mRNA by RT-qPCR in human nasal epithelial primary cells; format: cell-based; details: 5 μM or 1 μM, 3 x 24 hours with 20 ng/mL IL-13
Experimental: as §1
ALOX15 and POSTN mRNA levels were measured by RT-qPCR. […] The level of ALOX15 mRNA from each sample was measured in triplicate by real-time qPCR on an Applied Biosystems 7500 Fast Real-Time PCR machine using the TaqMan Gene Expression Assay for human ALOX15 (ThermoFisher, assay #Hs00993765_g1). The level of PPIA mRNA was measured in biplex reactions using TaqMan Gene Expression Assay (ThermoFisher, assay #Hs99999904_ml) and used to determine relative ALOX15 mRNA levels in each well using the delta-delta Ct method. […] Relative POSTN mRNA levels were measured as above using TaqMan Gene Expression Assay specific for human POSTN mRNA (ThermoFisher, assay #Hs00170815_m1). […]

[4] = biological target: T2, 15-lipoxygenase in primary peripheral blood eosinophils (Homo sapiens, UniProt P16050); assay: Inhibition of 15-lipoxygenase in human primary eosinophils, 15(S)-HETE ELISA; details: 3 μM arachidonic acid
T2 sequence (P16050 1-662): T1 sequence (P16050 1-662)
Experimental: Primary peripheral blood eosinophils from 2 separate donors (StemExpress) were thawed from frozen and allowed to recover in growth media for 4 hours at 37° C. Cells were washed with Hank's Balanced Salt Solution, then aliquoted into 96 well round bottomed plate at 1*10^5 cells/well, 200 μL/well. […] Arachidonic acid was added to final concentration of 3 μM and experiment started. At 1 hour post-treatment the supernatant was collected and 15(S)-HETE was quantified by ELISA (Cayman Chemical) according to manufacturer's recommended protocol. Comparisons were made between the cells treated with the test compounds and cells treated with vehicle only.

pH of the solution ([2]; 1 mg/ml in water, estimated using litmus paper): < 3
increase in water solubility above compound 3 ([2]; disodium salt): 7,200 fold
further increase in solubility as a sodium salt ([2]; disodium salt versus free phosphoric acid): 4 fold
increase in water solubility over compound 3 ([2]; free phosphoric acid): ~1800 fold
solubility ([2]; free phosphoric acid, 4.7 mg fully dissolved in 4.7 ml water, read-out: solubility in water): 1000 µg/mL
solubility ([2]; water with 2 eq NaHCO3, aqueous buffer, disodium salt, 2 eq NaHCO3 added, read-out: concentration in water giving a clear solution): ≥ 10000 µM
solubility ([2]; water, free phosphoric acid, at 1 mg/ml, molecular weight 418, read-out: solubility in water, concentration): 2400 µM
IC50 [3]: 32 nM
inhibition of ALOX15 ([3]; in the absence of treatment with phosphatase): No inhibition was observed
decrease in 15-HETE production compared to vehicle or ALP alone (FIG. 2) ([4]; 10 μM pretreated 15 minutes with 0.2 U alkaline phosphatase (ALP), 1 hour): approximately 60%
decrease in 15-HETE production compared to vehicle or ALP alone (FIG. 2) ([4]; 10 μM, 1 hour post-treatment): approximately 40%
Compound: O=C(Nc1ccc(F)cc1Cl)c1nn(COP(=O)(O)O)c(Cl)c1Cl [compound 5, (4,5-dichloro-3-((2-chloro-4-fluorophenyl)carbamoyl)-1H-pyrazol-1-yl)methyl dihydrogen phosphate]
conversion of compound 5 to compound 3 in quenched media samples (FIG. 6) [1]: majority of compound 5 was converted to compound 3
relative level of POSTN mRNA versus vehicle (FIG. 7) (POSTN mRNA): lower
